Data published in patent US20070032469A1, “Tricyclic benzimidazoles and their use as metabotropic glutamate receptor modulators” (AstraZeneca AB, priority 2005, published 2007).

Biological target: T1, human mGluR2 (Homo sapiens, UniProt Q14416)
T1 construct: fused on or other part: If FLIPR: the intracellular domain of the human calcium receptor (CASR, P41180) in place of mGluR2's own, and the promiscuous chimeric G protein Gaqi5 fused on; If GTPgammaS: nothing
Assay: mGluR2 potentiator assays described herein (FLIPR calcium mobilization in HEK 293 cells expressing chimeric mGluR2/CaR, or [35S]-GTPγS binding with CHO membranes)
Format: cell-based
Details: active in the assays described herein; which assay (FLIPR or GTPγS) is not stated
From the text: The pharmacological properties of the compounds of the invention can be analyzed using standard assays for functional activity. Examples of glutamate receptor assays are well known in the art as described in, for example, Aramori et al., 1992, Neuron, 8:757; Tanabe et al., 1992, Neuron, 8:169; Miller et al., 1995, J. Neuroscience, 15:6103; Balazs, et al., 1997, J. Neurochemistry, 1997,69:151. The methodology described in these publications is incorporated herein by reference. Conveniently, the compounds of the invention can be studied by means of an assay that measures the mobilization of intracellular calcium, [Ca^2+]i in cells expressing mGluR2.
Fluorometric Imaging Plate Reader (FLIPR) analysis was used to detect allosteric activators of mGluR2 via calcium mobilization. A clonal HEK 293 cell line expressing a chimeric mGluR2/CaR construct comprising the extracellular and transmembrane domains of human mGluR2 and the intracellular domain of the human calcium receptor, fused to the promiscuous chimeric protein Gaqi5 was used. […] At 24-hours prior to analysis, the cells were trypsinized and plated in DMEM at 100,000 cells/well in black sided, clear-bottom, collagen I coated, 96-well plates. The plates were incubated under 5% CO2 at 37° C. overnight. Cells were loaded with 6 μM fluo-3 acetoxymethylester (Molecular Probes, Eugene Oreg.) for 60 min. at room temperature. All assays were performed in a buffer containing 126 mM NaCl, 5 mM KCl, 1 mM MgCl2, 1 mM CaCl2, 20 mM Hepes, 0.06 μM DCG-IV (a Group II mGluR selective agonist), supplemented with 1.0 mg/ml D-glucose and 1.0 mg/ml BSA fraction IV (pH 7.4).
FLIPR experiments were done using a laser setting of 0.8 W and a 0.4 second CCD camera shutter speed. Extracellular fluo-3 was washed off and cells were maintained in 160 μL of buffer and placed in the FLIPR. An addition of test compound (0.01 μM to 30 μM in duplicate) was made after 10 seconds of baseline fluorescent readings were recorded on FLIPR. Fluorescent signals were then recorded for an additional 75 seconds at which point a second addition of DCG-IV (0.2 μM) was made and fluorescent signals were recorded for an additional 65 seconds. Fluorescent signals were measured as the peak height of the response within the sample period. Data was analyzed using Assay Explorer, and EC50 and Emax values (relative to maximum DCG-IV effect) were calculated using a four parameter logistic equation.
A [^35S]-GTPγS binding assay was used to functionally assay mGluR2 receptor activation. The allosteric activator activity of compounds at the human mGluR2 receptor was measured using a [^35S]-GTPγS binding assay with membranes prepared from CHO cells which stably express the human mGluR2. The assay is based upon the principle that agonists bind to G-protein coupled receptors to stimulate GDP-GTP exchange at the G-protein. Since [^35S]-GTPγS is a non-hydrolyzable GTP analog, it can be used to provide an index of GDP-GTP exchange and, thus, receptor activation. The GTPγS binding assay therefore provides a quantitative measure of receptor activation.
Membranes were prepared from CHO cells stably transfected with human mGluR2. […] The amount of radioactivity bound was determined by counting plates on the Packard TopCount. […]

T1 sequence (Q14416 19-819 limits assumed): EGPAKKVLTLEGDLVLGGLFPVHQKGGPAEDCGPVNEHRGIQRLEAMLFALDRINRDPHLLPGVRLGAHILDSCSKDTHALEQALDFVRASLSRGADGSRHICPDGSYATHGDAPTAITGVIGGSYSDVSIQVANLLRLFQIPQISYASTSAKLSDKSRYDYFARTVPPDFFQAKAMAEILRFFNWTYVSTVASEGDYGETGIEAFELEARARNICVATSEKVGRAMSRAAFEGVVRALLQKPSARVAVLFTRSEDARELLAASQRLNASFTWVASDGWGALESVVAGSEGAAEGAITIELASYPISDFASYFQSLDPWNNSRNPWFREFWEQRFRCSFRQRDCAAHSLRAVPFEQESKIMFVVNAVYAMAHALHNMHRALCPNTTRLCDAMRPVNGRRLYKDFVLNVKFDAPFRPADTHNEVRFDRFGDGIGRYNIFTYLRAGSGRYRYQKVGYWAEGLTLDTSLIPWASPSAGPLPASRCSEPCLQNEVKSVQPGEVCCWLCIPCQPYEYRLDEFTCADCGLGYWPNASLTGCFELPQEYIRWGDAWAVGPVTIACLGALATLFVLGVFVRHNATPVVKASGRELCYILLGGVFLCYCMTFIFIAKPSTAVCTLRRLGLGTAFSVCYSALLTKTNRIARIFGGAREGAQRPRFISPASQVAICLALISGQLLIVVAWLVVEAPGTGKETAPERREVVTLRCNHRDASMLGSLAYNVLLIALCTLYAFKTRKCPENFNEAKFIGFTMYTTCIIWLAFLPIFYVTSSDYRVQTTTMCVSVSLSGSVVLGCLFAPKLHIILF

`CC1CCc2cc(F)cc3nc(CN4CCC(Oc5ccccc5Cl)CC4)n1c23` (centres unmarked) [Example 26.55, 8-fluoro-4-methyl-2-[4-(2-chlorophenoxy)-piperidin-1-ylmethyl]-5,6-dihydro-4H-imidazo[4,5,1-ij]quinoline] gave an EC50 of 370 nM.
Compound `Fc1ccc(C2CCN(Cc3nc4cccc5c4n3CCO5)CC2)cc1` [Example 26.69] has an EC50 of 230 nM.
`CC1CCc2cc(F)cc3nc(CN4CCN(c5ccc(F)cc5)CC4)n1c23` (centres unmarked) [Example 26.56, 8-fluoro-4-methyl-2-{[4(4-fluorophenyl)piperizin-1-yl]methyl}-5,6-dihydro-4H-imidazo[4,5,1-ij]quinoline] gave an EC50 of 1580 nM.
Work on `CC1CCc2cc(F)cc3nc(CN4CC=C(c5ccc(OC(F)(F)F)cc5)CC4)n1c23` (centres unmarked) [Example 26.65, 8-fluoro-4-methyl-2-{[4-(4-trifluoromethoxyphenyl)-3,6-dihydropyridin-1(2H)-yl]methyl}-5,6-dihydro-4H-imidazo[4,5,1-ij]quinoline] yielded an EC50 of 80 nM.
Compound `O=C1CCN2C(CN3CCC(c4ccc(F)cc4)CC3)=NC3C=C(F)C=C1C32` (centres unmarked) [Example 28.1, 8-Fluoro-2-[4-(4-fluoro-phenyl)-piperidin-1-ylmethyl]-4,5,9a,9b-tetrahydroimidazo[4,5,1-ij]quinolin-6-one] has an EC50 of 1110 nM.
